Laboratory results: patent publication US9249129B2, “Morpholino substituted urea derivatives as mTOR inhibitors” (CELLZOME LIMITED, priority 2010, dated 2016)

Columns and labels:
Experiment in all cases: kinobeads assay with mass spectrometry detection of kinases (kinase selectivity profile)
Format in all cases: binding
kinases (kinome) [1] = biological target: T1, kinases (kinome) (Homo sapiens, UniProt P06493); conditions: CDC2 (CMGC), IPI00026689
T1 construct: determined in kinobeads assays with mass spectrometry detection of kinases as described previously; endogenous in cells; host or cells: cell lysate
Excerpt: (§1) The protein kinase complement of the human genome (the kinome) was described previously (Manning et al., 2002. Science 298(5600):1912-1934). Sequence accession numbers are defined by the International Protein Index (IPI) (Kersey et al., 2004. Proteomics 4(7):1985-1988).

kinases (kinome) [2] = biological target: T2, kinases (kinome) (Homo sapiens, UniProt Q9P2K8); conditions: GCN2 (Other), IPI00163851
T2 construct: determined in kinobeads assays with mass spectrometry detection of kinases as described previously; endogenous in cells; host or cells: cell lysate
Excerpt: as §1

kinases (kinome) [3] = biological target: T3, kinases (kinome) (Homo sapiens, UniProt P43403); conditions: ZAP70 (TK), IPI00329789
T3 construct: determined in kinobeads assays with mass spectrometry detection of kinases as described previously; endogenous in cells; host or cells: cell lysate
T3 sequence (P43403 1-619): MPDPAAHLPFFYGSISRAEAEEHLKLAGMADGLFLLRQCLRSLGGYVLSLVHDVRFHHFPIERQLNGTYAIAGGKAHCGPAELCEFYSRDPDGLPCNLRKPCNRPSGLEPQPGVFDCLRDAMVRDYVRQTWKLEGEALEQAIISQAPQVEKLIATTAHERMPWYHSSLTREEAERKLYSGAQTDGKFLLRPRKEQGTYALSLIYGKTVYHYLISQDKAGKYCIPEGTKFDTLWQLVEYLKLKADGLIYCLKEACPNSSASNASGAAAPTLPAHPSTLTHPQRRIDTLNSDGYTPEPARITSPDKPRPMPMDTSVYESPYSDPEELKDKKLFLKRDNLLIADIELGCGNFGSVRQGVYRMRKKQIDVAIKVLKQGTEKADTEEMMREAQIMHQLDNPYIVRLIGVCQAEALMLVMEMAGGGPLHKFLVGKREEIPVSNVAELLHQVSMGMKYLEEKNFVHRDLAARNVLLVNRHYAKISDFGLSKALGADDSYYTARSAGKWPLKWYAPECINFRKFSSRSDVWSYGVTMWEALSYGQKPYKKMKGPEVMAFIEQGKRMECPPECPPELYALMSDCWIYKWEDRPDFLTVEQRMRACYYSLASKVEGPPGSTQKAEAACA
Excerpt: as §1

kinases (kinome) [4] = biological target: T4, kinases (kinome) (Homo sapiens, UniProt P36507); conditions: MAP2K2 (STE), IPI00003783
T4 construct: determined in kinobeads assays with mass spectrometry detection of kinases as described previously; endogenous in cells; host or cells: cell lysate
Excerpt: as §1

kinases (kinome) [5] = biological target: T5, kinases (kinome) (Homo sapiens, UniProt P52333); conditions: JAK3 (TK), IPI00219418
T5 construct: determined in kinobeads assays with mass spectrometry detection of kinases as described previously; endogenous in cells; host or cells: cell lysate
T5 sequence (P52333 1-1124): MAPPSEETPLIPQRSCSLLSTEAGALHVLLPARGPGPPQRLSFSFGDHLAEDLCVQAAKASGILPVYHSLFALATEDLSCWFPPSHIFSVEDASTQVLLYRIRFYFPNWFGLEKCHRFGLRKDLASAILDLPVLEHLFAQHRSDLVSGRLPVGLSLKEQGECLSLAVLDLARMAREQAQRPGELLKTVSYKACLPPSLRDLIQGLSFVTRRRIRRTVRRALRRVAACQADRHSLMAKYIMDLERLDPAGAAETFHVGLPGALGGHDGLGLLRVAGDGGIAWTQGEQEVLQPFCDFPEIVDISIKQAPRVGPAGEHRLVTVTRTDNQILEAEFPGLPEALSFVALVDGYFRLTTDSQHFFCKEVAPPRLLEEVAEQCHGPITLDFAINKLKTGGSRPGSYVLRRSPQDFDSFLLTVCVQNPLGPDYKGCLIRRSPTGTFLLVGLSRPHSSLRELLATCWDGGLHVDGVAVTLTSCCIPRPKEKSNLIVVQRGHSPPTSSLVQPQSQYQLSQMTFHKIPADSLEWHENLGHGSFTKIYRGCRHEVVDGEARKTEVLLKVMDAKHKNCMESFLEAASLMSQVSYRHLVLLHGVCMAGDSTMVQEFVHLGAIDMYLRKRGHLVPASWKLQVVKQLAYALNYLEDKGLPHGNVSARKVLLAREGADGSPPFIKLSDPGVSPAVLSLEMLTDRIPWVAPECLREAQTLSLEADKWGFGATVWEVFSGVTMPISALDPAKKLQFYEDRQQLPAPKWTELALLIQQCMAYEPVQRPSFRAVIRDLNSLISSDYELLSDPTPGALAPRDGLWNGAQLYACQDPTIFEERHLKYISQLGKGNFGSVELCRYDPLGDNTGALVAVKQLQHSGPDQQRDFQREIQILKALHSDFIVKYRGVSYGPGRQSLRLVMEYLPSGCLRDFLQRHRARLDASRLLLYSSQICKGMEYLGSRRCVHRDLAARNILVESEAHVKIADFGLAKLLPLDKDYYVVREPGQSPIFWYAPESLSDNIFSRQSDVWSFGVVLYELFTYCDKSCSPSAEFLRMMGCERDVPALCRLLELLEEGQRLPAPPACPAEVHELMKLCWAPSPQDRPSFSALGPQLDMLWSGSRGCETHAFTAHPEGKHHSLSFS
Excerpt: as §1

kinases (kinome) [6] = biological target: T6, kinases (kinome) (Homo sapiens, UniProt Q13188); conditions: MST2 (STE), IPI00411984
T6 construct: determined in kinobeads assays with mass spectrometry detection of kinases as described previously; endogenous in cells; host or cells: cell lysate
T6 sequence (Q13188 1-491): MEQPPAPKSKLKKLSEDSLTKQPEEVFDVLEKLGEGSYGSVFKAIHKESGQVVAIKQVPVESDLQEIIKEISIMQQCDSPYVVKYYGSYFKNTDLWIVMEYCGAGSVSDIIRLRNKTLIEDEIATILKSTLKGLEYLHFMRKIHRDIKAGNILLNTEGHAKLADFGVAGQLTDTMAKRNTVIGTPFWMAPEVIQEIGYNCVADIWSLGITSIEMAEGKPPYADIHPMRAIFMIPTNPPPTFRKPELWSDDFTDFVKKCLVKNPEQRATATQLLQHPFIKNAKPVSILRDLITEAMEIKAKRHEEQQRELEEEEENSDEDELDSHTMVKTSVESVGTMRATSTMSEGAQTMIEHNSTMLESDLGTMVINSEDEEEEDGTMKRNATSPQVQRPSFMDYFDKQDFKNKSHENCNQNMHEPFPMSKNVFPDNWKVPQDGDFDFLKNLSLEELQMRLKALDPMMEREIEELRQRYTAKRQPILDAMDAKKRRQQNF
Excerpt: as §1

Measured: IC50

T4 sequence (P36507 whole entry): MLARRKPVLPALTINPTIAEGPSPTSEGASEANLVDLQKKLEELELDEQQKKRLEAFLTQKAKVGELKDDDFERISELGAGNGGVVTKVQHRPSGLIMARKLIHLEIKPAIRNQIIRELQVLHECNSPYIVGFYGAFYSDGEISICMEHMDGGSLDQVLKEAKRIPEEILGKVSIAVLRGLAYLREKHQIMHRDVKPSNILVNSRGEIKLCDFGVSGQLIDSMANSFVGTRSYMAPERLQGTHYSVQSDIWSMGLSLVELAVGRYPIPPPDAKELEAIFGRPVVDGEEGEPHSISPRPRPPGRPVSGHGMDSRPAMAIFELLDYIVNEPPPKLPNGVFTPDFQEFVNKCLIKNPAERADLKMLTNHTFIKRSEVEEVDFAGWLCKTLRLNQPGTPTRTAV
T2 sequence (Q9P2K8 whole entry): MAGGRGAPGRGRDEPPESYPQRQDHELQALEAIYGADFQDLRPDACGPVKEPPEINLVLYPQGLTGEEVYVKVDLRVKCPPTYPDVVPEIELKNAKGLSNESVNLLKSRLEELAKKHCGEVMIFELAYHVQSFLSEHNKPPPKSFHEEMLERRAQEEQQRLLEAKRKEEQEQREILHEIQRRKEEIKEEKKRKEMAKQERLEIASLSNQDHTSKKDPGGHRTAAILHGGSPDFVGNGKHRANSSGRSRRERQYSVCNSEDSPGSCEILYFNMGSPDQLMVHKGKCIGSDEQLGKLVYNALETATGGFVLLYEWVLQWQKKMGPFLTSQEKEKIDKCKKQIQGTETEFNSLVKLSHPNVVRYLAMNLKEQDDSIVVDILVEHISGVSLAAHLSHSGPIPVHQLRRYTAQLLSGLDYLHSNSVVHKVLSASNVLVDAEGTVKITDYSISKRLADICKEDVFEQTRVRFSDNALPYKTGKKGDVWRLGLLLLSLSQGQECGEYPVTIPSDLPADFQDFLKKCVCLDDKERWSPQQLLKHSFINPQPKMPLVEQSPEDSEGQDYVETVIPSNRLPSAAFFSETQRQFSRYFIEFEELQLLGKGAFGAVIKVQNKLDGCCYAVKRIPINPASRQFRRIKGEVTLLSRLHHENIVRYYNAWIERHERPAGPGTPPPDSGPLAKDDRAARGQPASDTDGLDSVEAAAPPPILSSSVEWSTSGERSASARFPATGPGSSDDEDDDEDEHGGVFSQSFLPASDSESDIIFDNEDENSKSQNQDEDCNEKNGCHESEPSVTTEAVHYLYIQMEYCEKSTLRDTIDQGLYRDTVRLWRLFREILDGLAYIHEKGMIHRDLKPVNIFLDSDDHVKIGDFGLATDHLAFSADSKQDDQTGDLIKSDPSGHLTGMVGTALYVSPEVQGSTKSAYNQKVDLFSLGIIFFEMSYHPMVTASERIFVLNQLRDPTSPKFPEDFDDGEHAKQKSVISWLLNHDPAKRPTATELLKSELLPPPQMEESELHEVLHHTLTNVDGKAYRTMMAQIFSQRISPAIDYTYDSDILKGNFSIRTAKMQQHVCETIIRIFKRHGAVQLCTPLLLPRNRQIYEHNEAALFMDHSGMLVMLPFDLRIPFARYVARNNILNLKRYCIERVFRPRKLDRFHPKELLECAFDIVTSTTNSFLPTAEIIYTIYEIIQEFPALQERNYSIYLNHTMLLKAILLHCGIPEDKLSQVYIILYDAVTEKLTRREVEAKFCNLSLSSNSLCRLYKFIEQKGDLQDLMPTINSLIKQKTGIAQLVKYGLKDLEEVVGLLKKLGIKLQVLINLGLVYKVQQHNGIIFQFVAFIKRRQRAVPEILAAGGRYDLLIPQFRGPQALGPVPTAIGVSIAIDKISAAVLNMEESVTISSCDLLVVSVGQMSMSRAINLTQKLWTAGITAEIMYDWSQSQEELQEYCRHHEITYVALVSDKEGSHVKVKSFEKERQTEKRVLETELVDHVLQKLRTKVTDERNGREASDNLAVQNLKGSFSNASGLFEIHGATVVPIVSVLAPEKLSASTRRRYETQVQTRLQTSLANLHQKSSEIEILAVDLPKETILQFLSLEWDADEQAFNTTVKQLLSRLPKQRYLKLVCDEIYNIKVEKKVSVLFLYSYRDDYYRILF
T1 sequence (P06493 whole entry): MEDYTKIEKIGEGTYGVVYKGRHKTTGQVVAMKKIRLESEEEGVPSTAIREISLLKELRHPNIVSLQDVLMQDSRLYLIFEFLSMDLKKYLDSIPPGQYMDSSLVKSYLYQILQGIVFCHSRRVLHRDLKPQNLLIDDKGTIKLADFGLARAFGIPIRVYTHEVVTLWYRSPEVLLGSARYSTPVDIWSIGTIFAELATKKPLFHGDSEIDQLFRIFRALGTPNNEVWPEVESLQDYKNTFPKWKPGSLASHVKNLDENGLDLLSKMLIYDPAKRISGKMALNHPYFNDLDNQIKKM

C[C@H]1COCCN1c1nc(-c2ccc(NC(=O)NC3CC3)cc2)cc(-c2ccccc2S(C)(=O)=O)n1 [Example 4, (S)-1-cyclopropyl-3-(4-(2-(3-methylmorpholino)-6-(2-(methylsulfonyl)phenyl)pyrimidin-4-yl)phenyl)urea]
> 10 µM: kinases (kinome) [1] | kinases (kinome) [2] | kinases (kinome) [3] | kinases (kinome) [4]

C[C@H]1COCCN1c1cc(-c2ccccc2S(C)(=O)=O)nc(-c2ccc(NC(=O)NC3CC3)cc2)n1 [Example 6, (S)-1-cyclopropyl-3-(4-(4-(3-methylmorpholino)-6-(2-(methylsulfonyl)phenyl)pyrimidin-2-yl)phenyl)urea]
> 10 µM: kinases (kinome) [2] | kinases (kinome) [5]

C[C@H]1COCCN1c1nc(-c2ccc(NC(=O)NC3CC3)cc2)cc(-c2cc(F)ccc2S(C)(=O)=O)n1 [Example 40, (S)-1-cyclopropyl-3-(4-(6-(5-fluoro-2-(methylsulfonyl)phenyl)-2-(3-methylmorpholino)pyrimidin-4-yl)phenyl)urea]
not listed: kinases (kinome) [2]
> 10 µM: all other assays above

C[C@H]1COCCN1c1cc(-c2ccccn2)nc(-c2ccc(NC(=O)NCCO)cc2)n1 [Example 43, (S)-1-(2-hydroxyethyl)-3-(4-(4-(3-methylmorpholino)-6-(pyridin-2-yl)pyrimidin-2-yl)phenyl)urea]
not listed: kinases (kinome) [1]
> 10 µM: all other assays above

C[C@H]1COCCN1c1nc(-c2ccc(NC(=O)NC3CC3)cc2)cc(-c2cccnc2S(C)(=O)=O)n1 [Example 46, (S)-1-cyclopropyl-3-(4-(2-(3-methylmorpholino)-6-(2-(methylsulfonyl)pyridin-3-yl)pyrimidin-4-yl)phenyl)urea]
> 10 µM: all assays above

C[C@H]1COCCN1c1nc(-c2ccc(NC(=O)N[C@H]3CCC[C@@H]3O)cc2)cc(-c2cc(F)ccc2S(C)(=O)=O)n1 [Example 76, 1-(4-(6-(5-fluoro-2-(methylsulfonyl)phenyl)-2-((S)-3-methylmorpholino)pyrimidin-4-yl)phenyl)-3-((1S,2S)-2-hydroxycyclopentyl)urea]
> 10 µM: kinases (kinome) [1] | kinases (kinome) [5] | kinases (kinome) [4]
